Read-outs that look alike come from different tables or passages of the source. Values belong to the compound of their own block, whether it stands above or below them.
Assays:
[1] = cited from earlier work
[2] = cited from earlier work; remark: listed apart in the source
[3] = clinical safety in subjects treated with Compound 1; format: in vivo
[4] = tested on: ApoE; assay: ApoE gene expression induction in hPBMCs; format: cell-based, human
[5] = tested on: CYP3A; assay: CYP3A time-dependent inhibition in vitro; format: in vitro ADME; settings: testosterone as the substrate
[6] = tested on: CYP2B6; assay: CYP induction in cryopreserved hepatocytes; format: in vitro ADME; settings: 1 concentration in 1/3 donors
[7] = biological target: 2C19 (Homo sapiens, UniProt P33261); assay: CYP inhibition in vitro; format: in vitro ADME
[8] = oral PK in Sprague-Dawley rats; format: in vivo
[9] = initial solubility assessment in 12 solvents/solvent mixtures; format: physicochemical; settings: amorphous Compound 1, 12 solvents/solvent mixtures
Description: An initial solubility assessment was conducted in 12 solvents/solvent mixtures using amorphous Compound 1. […] Salt screening by cooling, anti-solvent addition, maturation, liquid assisted grinding, neat grinding and evaporation were all investigated. Gums isolated were subjected to heat/cool maturation cycles (room temperature/50° C.), sonication, prolonged storage under vacuum, prolonged storage at 40° C./75% RH, trituration with anti-solvent and liquid assisted grinding (LAG) with water. From extensive salt screening, eight hits were obtained. Amorphous hits with a high glass transition temperature (Tg) were identified from zinc chloride, naphthalene-2-sulfonic acid, 1,5-naphthalene disulfonic acid, and ethane sulfonic acid. One crystalline hit was identified from ethane sulfonic acid. Poorly crystalline material was isolated from calcium hydroxide, magnesium hydroxide and aluminum hydroxide.

[10] = biological target: T1, 1A1 (Homo sapiens, UniProt P04798); assay: CYP inhibition in vitro; format: in vitro ADME
T1 sequence (P04798 1-512): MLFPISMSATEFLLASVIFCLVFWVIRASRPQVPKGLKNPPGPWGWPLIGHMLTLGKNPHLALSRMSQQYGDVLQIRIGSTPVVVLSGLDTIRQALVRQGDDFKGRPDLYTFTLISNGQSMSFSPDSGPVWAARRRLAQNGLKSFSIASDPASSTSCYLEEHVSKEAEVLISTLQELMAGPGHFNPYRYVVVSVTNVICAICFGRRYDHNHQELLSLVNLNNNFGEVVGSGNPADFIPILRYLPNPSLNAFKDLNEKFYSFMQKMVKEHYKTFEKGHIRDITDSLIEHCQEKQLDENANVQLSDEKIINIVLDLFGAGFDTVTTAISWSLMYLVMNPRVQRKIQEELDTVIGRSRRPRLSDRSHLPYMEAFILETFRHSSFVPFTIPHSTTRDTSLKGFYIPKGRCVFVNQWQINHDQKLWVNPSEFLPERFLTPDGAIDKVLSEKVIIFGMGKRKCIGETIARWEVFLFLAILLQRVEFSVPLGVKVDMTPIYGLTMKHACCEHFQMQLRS

[11] = biological target: 2D6 (Homo sapiens, UniProt P10635); assay: CYP inhibition in vitro; format: in vitro ADME
[12] = tested on: CYP2E1, CYP2C9, CYP2C19, and possibly CYP2J2; assay: in vitro metabolism by CYP isoforms (other substrates); format: in vitro ADME
[13] = oral PK in male Beagle dogs; format: in vivo
[14] = tested on: ApoE; assay: ApoE gene expression induction in cancer cells; format: cell-based
[15] = animal / pre-clinical toxicology studies; format: in vivo
[16] = biological target: 3A4 (Homo sapiens, UniProt P08684); assay: CYP inhibition in vitro; format: in vitro ADME
[17] = tested on: melanoma, glioblastoma, TNBC, ovarian cancer, and lung cancer; assay: syngeneic and human xenograft mouse tumor models, primary tumor growth; format: in vivo
[18] = biological target: 2C9 (Homo sapiens, UniProt P11712); assay: CYP inhibition in vitro; format: in vitro ADME
[19] = biological target: P-glucoprotein (P-gp) (Homo sapiens, UniProt P08183); assay: efflux transporter inhibition in vitro; format: in vitro ADME
[20] = neurobehavioral FOB and respiratory evaluations in rats; format: in vivo
[21] = oral PK in CD-1 mice; format: in vivo
[22] = tested on: CYP1A2; assay: CYP induction
[23] = oral PK in Cynomolgus monkeys; format: in vivo
[24] = biological target: CYP3A4 (Homo sapiens, UniProt P08684); assay: in vitro metabolism by CYP isoforms; format: in vitro ADME
[25] = tested on: CYP3A; assay: CYP induction in cryopreserved hepatocytes; format: in vitro ADME; settings: primary cultures of cryopreserved hepatocytes (2 donors)
[26] = biological target: 2E1 (Homo sapiens, UniProt P05181); assay: CYP inhibition in vitro; format: in vitro ADME
[27] = tested on: endothelial recruitment; assay: inhibition of endothelial recruitment in vitro; format: cell-based
[28] = ECG and heart rate in dogs (safety pharmacology); format: in vivo
[29] = biological target: human ether-à-go-go-related gene (hERG) channel (Homo sapiens, UniProt Q12809); assay: in vitro hERG assay; format: cell-based
[30] = biological target: T2, 2A6 (Homo sapiens, UniProt P11509); assay: CYP inhibition in vitro; format: in vitro ADME
T2 sequence (P11509 1-494): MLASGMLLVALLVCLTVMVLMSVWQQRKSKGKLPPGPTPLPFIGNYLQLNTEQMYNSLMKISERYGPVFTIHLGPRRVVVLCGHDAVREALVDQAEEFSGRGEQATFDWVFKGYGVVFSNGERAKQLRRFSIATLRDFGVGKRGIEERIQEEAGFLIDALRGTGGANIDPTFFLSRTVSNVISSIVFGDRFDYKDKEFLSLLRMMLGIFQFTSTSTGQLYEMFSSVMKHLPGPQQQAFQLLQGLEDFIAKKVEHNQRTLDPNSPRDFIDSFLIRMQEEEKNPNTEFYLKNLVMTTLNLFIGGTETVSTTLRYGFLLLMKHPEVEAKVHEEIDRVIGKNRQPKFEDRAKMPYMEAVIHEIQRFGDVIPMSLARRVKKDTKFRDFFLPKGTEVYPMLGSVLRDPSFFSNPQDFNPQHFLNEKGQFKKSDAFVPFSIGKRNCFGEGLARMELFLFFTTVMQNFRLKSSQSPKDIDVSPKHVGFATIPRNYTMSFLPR

[31] = stability of salts of Compound 1 during processing and formulation; settings: for stability of strong acid salts: readily undergo apparent esterification with alcoholic solvents; for stability towards excipients and/or components of a formulation: salts react with excipients and/or components of a formulation
[32] = Table 6, counterion sources, second set Study 3
[33] = Table 5, counterion sources, first set Study 3

Sequence of 2C9 (P11712 whole entry): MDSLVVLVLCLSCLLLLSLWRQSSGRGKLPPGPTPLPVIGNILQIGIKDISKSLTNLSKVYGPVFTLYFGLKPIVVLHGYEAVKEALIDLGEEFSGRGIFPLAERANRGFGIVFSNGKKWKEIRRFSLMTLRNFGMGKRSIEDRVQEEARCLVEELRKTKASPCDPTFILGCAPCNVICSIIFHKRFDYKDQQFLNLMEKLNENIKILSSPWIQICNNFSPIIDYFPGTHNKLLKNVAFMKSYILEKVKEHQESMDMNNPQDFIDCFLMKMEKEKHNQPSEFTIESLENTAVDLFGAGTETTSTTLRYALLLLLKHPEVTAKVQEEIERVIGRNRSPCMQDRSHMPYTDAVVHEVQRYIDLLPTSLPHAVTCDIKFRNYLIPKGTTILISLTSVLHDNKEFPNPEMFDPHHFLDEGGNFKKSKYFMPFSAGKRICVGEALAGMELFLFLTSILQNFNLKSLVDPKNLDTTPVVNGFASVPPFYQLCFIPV
Sequence of 2D6 (P10635 whole entry, canonical isoform): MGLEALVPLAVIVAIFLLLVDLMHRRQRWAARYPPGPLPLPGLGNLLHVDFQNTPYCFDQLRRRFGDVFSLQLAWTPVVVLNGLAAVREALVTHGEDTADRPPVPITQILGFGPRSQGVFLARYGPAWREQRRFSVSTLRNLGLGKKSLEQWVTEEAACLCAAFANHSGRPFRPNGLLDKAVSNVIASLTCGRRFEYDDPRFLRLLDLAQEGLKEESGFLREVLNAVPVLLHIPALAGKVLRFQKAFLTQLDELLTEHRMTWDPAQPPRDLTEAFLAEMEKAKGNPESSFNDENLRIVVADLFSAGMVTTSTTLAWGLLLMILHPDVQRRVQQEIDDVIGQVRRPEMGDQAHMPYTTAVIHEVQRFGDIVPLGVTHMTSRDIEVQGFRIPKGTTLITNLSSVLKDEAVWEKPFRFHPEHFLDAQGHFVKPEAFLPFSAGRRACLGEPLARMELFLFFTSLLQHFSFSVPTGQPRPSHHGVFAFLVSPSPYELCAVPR
Sequence of human ether-à-go-go-related gene (hERG) channel (Q12809 whole entry): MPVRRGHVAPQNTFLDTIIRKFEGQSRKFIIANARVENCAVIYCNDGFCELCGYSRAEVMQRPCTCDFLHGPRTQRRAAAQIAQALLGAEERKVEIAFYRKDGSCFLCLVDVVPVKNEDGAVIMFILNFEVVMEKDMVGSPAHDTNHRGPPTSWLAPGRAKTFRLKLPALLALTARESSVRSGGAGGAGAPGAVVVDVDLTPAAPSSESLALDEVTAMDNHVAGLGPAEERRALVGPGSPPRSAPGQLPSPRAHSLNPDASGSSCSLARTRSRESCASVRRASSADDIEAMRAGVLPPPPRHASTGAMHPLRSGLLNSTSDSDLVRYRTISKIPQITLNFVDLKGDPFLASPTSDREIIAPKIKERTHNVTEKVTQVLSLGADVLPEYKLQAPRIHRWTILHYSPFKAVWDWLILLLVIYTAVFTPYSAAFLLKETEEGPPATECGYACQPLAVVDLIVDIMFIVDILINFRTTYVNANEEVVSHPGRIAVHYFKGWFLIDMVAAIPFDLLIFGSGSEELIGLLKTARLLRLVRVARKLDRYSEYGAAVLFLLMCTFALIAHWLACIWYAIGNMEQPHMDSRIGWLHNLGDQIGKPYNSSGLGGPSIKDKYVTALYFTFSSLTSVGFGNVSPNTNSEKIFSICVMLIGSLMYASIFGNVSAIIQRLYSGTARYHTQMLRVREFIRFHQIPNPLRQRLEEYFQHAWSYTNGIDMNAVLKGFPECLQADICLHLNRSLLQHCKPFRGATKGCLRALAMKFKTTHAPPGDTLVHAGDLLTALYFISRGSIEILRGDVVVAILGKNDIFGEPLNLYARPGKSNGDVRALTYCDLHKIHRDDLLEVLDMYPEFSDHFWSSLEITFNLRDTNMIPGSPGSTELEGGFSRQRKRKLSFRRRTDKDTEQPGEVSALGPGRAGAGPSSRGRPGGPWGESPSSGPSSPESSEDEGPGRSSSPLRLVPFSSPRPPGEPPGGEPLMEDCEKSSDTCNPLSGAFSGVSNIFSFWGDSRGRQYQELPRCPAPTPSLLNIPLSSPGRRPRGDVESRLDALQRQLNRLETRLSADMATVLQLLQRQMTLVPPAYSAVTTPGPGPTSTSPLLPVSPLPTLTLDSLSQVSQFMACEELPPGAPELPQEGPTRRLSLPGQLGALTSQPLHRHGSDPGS
Sequence of P-glucoprotein (P-gp) (P08183 whole entry): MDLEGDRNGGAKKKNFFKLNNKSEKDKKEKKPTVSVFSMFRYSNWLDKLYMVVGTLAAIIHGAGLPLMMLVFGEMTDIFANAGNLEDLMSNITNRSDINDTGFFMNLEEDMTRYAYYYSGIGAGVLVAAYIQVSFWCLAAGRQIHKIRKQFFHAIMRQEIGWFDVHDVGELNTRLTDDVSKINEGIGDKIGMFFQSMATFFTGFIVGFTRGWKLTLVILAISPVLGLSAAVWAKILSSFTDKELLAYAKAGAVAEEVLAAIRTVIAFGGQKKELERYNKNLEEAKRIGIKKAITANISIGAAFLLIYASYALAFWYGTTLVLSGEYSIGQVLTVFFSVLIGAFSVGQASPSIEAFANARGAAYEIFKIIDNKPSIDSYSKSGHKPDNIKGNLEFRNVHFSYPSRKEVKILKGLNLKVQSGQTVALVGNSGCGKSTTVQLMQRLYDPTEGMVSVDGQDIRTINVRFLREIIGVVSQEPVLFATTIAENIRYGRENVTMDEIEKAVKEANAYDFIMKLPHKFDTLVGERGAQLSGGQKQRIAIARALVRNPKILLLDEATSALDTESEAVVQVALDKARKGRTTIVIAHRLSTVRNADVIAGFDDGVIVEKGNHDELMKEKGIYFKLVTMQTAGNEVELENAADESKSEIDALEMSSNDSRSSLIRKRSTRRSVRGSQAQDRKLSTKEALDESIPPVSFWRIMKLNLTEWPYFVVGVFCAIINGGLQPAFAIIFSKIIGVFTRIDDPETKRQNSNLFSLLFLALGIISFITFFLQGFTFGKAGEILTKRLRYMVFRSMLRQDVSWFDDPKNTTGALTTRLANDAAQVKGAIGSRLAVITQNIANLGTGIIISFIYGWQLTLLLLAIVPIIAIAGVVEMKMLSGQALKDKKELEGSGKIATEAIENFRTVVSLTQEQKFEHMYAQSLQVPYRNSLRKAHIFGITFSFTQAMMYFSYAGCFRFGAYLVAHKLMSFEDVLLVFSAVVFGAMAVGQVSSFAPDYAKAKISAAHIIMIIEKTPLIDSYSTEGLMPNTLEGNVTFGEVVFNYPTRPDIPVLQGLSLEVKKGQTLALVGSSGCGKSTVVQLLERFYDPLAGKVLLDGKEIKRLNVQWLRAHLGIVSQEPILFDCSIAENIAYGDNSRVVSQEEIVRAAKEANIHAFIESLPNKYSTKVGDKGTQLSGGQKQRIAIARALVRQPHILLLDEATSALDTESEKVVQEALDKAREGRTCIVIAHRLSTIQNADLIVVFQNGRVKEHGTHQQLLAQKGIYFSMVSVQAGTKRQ
Sequence of 2C19 (P33261 whole entry): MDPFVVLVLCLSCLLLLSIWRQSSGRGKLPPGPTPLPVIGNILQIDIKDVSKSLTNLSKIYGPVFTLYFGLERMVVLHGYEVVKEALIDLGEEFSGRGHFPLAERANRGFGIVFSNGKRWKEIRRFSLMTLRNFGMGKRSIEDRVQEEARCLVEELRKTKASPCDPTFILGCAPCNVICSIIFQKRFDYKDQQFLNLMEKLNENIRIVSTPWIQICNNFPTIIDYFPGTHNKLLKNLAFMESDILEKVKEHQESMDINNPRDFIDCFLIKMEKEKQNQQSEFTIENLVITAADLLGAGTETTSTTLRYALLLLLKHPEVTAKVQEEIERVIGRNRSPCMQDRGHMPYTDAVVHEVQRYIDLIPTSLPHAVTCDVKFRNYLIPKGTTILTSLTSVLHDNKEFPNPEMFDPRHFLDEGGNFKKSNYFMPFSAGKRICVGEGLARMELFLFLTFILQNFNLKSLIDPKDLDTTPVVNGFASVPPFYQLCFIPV
Sequence of CYP3A4 (P08684 whole entry, canonical isoform): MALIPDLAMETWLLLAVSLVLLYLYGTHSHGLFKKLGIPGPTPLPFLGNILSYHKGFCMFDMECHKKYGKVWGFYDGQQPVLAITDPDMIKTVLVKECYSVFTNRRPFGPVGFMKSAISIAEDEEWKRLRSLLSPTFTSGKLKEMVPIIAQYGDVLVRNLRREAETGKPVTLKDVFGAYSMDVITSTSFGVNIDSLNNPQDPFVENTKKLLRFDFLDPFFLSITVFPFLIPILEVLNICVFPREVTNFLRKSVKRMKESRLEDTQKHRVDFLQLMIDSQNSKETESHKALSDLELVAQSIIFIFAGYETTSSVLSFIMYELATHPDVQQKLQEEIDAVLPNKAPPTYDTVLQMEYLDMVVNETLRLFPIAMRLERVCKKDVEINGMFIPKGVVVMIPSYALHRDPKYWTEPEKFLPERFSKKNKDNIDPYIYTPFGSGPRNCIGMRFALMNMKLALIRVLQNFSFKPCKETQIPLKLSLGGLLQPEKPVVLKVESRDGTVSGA
Sequence of 3A4 (P08684 whole entry): as the sequence (P08684 whole entry, canonical isoform) above
Sequence of 2E1 (P05181 whole entry): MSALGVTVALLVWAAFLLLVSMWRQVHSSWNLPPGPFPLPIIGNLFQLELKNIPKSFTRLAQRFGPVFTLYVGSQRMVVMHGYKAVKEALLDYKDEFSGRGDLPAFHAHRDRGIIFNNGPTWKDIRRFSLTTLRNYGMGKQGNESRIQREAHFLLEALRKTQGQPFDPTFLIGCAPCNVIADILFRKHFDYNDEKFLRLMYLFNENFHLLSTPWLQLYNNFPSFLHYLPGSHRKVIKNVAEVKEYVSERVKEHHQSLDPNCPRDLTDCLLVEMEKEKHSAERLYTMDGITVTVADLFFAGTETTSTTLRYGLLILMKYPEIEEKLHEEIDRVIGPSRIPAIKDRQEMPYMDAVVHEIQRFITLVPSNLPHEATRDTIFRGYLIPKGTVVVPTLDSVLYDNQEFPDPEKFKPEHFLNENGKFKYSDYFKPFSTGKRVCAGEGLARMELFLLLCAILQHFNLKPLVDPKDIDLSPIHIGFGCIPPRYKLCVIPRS

Compound: OCCN1CCCC1 [1-(2-Hydroxyethyl)-pyrrolidine]
pKa1 [1, 32]: 9.4

Compound: [NH2][Pt]1([NH2])[O]C(=O)C2(CCC2)C(=O)[O]1 [Carboplatin, platinum, diamine[1,1-cyclobutanedicarboxylato(2-)-O,O′]-(SP-4-2)]
pH of a 1% solution ([2]; 1% solution): 5-7
solubility in ethanol, acetone, and dimethylacetamide ([2]; ethanol, acetone, dimethylacetamide): virtually insoluble
solubility in water ([2]; water): approximately 14 mg/mL

Compound: C[N+](C)(C)CCO [Choline]
pKa1 [1, 33]: >11.0

Compound: C[C@H](CCOc1cccc(CC(=O)O)c1)N(Cc1cccc(C(F)(F)F)c1Cl)CC(c1ccccc1)c1ccccc1 [Compound 1, 2-[3-[(3R)-3-[[2-chloro-3-(trifluoromethyl)phenyl]methyl-(2,2-diphenylethyl)amino]butoxy]phenyl]acetic acid]
dose limiting toxicity on single agent therapy ([3]; Compound 1 single agent therapy): DLT of Grade 4 neutropenia
hyperlipidemia in treated subjects ([3]; subjects treated with Compound 1): hyperlipidemia has been observed
EC50 ([4]; Homo sapiens): 271 nM
induction of ApoE gene expression ([4]; compared to control cells): up to 40 fold
CYP3A time-dependent inhibition (TDI) [5]: time-dependent inhibition (TDI) was demonstrated
induction of CYP2B6 [6]: > 2 fold
inhibition of 2C19 [7]: very weakly inhibited
mean apparent oral t % ([8]; female rats): 6.5 h
clearance, females versus males ([8]; rats): cleared at a lower rate in female rats compared to males
solubility in solvents/solvent mixtures [9]: Dissolution was observed in most of the samples
inhibition of 1A1 [10]: very weakly inhibited
inhibition of 2D6 [11]: very weakly inhibited
substrate for other CYP isoforms [12]: also a substrate
mean apparent oral t % [13]: 5 to 6.7 h
EC50 [14]: 385 nM
induction of ApoE gene expression ([14]; compared to control cells): 3 fold
potential risks based on animal toxicology studies ([15]; animal toxicology studies): elevations in serum cholesterol and TG, neutropenia/leukopenia, nausea and/or vomiting, elevations in liver enzymes, development or worsening of cataracts, cardiac rhythm disturbances and/or reduced cardiac function, harderian gland adenocarcinoma, and/or generalized edema
liver function in pre-clinical toxicity studies ([15]; pre-clinical toxicity studies): Liver function abnormalities have been observed
inhibition of 3A4 [16]: very weakly inhibited
exposures at minimum efficacious doses ([17]; 25-40 mg/kg/day PO): 10,000-50,000 ng-h/mL
minimum efficacious doses ([17]; administered orally (PO), tumor growth studies): 25 to 40 mg/kg/day
inhibition of 2C9 [18]: very weakly inhibited
inhibition of P-gp [19]: does not inhibit
neurobehavioral FOB or respiratory evaluations [20]: no adverse effects
food effect: plasma concentrations fed state [21]: > 2 fold
induction of CYP1A2 [22]: did not induce
Mean oral t % [23]: 5.5 to 8 h
metabolism by CYP3A4 [24]: metabolized predominantly
induction of CYP3A [25]: Induction of CYP3A by Compound 1 was demonstrated
inhibition of 2E1 [26]: very weakly inhibited
inhibition of endothelial recruitment [27]: ~50%
effects on qualitative ECG parameters (PR or QTc intervals or QRS duration) [28]: no Compound 1-related effects
mean heart rate ([28]; Day 1 post-dose interval, significant in females at 150 (stepped down to 100) mg/kg/day): dose related decrease
hERG channel conductance [29]: significant increase, but not inhibition
inhibition of 2A6 [30]: very weakly inhibited

Compound: OCCNCCO [Diethanolamine]
pKa1 [1, 33]: 9.5

Compound: O=S(=O)(O)CCS(=O)(=O)O [Ethane-1,2-disulfonic acid]
pKa1 [1, 33]: −2.1

Compound: CCS(=O)(=O)O [Ethanesulfonic acid]
pKa1 [1, 33]: −1.6

Compound: O=C(O)CNC(=O)c1ccccc1 [Hippuric acid]
pKa1 [1, 32]: 3.6

Compound: N[C@@H](Cc1c[nH]cn1)C(=O)O [Histidine]
pKa1 [1, 32]: 9.2

Compound: N=C(N)NCCC[C@H](N)C(=O)O [L-Arginine]
pKa1 [1, 33]: 9.0

Compound: NCCCC[C@H](N)C(=O)O [L-Lysine]
pKa1 [1, 32]: 9.2

Compound: O=S(=O)(O)c1ccc2ccccc2c1 [Naphthalene-2-sulfonic acid]
pKa1 [1, 33]: 0.17

Compound: O=[N+]([O-])O [Nitric acid]
pKa1 [1, 33]: −1.3

Compound: O=C(O)c1cc2ccccc2c(Cc2c(O)c(C(=O)O)cc3ccccc23)c1O [Pamoic acid]
pKa1 [1, 32]: 2.5

Compound: O=S(=O)([O-])CCS(=O)(=O)[O-].[Na+].[Na+] [Sodium edisylate]
pKa1 [1, 32]: −2.1

Compound: O=S(=O)([O-])CCO.[Na+] [Sodium isethionate]
pKa1 [1, 32]: 1.7

Compound: N#CS [Thiocyanic acid]
pKa1 [1, 32]: −1.3

stability of strong acid salts [31]: prone to instability
stability towards excipients and/or components of a formulation [31]: unstable
Compound: CS(=O)(=O)O [methanesulfonic acid]

Compound: H2SO4 [Compound H2SO4]
stability of strong acid salts [31]: prone to instability
stability towards excipients and/or components of a formulation [31]: unstable

Reference: US11878956B2, “Metal salts and uses thereof” (Inspirna, Inc., priority 2019, dated 2024)
